Where two headings read alike, the source gives them in different places.
Key:
[1] = biological target: Human carbonic anhydrase II (hCA-II) (Homo sapiens (Human), UniProt P00918); experiment: Human carbonic anhydrase-II inhibition assay (absorbance, 4-nitrophenyl acetate substrate); assay type: biochemical
Experimental: Human Carbonic Anhydrase-II Inhibition Assay
Human carbonic anhydrase II (hCA-II) inhibition was measured by an absorbance method using 4-nitrophenyl acetate (4-NPA) as its substrate. 4-NPA can be catalyzed by active hCA II via a zinc-hydroxide mechanism. The nitrophenolate in the products can be ionized to generate a bright yellow anion with high absorbance at 348 to 400 nm, as reported in the literature (Armstrong et al., J. Biol. Chem. 1966, 241, 5137-5149). OD340 nm was chosen for detecting hCA II substrate conversion.
(§1) Assay working solutions were made as follows:
Assay buffer: 50 mM MOPS, 33 mM Na2SO4, 1 mM EDTA, 0.5 mg/ml BSA, pH 7.5;
Enzyme solution: hCA-II (human, full length) stock solution (1.0 mg/mL in 20 mM HEPES, 50 mM NaCl, pH 7.4), diluted to 2133× final concentration in assay buffer;
4-NPA substrate solution: 4-NPA substrate stock solution (250 mM in DMSO, stored at −20° C.), diluted to 50× final concentration in deionized water.
Test compounds (10 mM stock in DMSO, 100 μL) were obtained in […] sample plates (Corning Costar #3655) and diluted to 0.5 mM. Column-wise serial dilutions were made by transferring 20 μL compound solutions to the next column, from column 3 up to 22. After this, 1.2 μL were transferred to 384 well assay plates (Corning Costar #3701). Then 30 μL of 16 nM hCA II solution was added (8 nM final concentration), mixed five times. 30 μL of 4-NPA substrate solution was added (2.5 mM final concentration), mixed five times. Absorbance at 340 nm was then measured immediately as time zero. The assay plates were incubated at room temperature for 1 hour and then measured as time 1 hour (Perkin Elmer EnVision 2103; Filter: Photometric 340; Light intensity 60%; Number of flashes: 10). IC50 values and Ki values were calculated from these readouts.

human ATX = human ATX (Homo sapiens (Human), UniProt Q13822); experiment: Human ATX enzyme inhibition assay (fluorescence quenching, MR121 substrate); assay type: biochemical
Experimental: Human ATX Enzyme Inhibition Assay
ATX inhibition was measured by a fluorescence quenching assay using a specifically labeled substrate analogue (MR121 substrate). To obtain this MR121 substrate, BOC and TBS protected 6-amino-hexanoic acid (R)-3-({2-[3-(2-{2-[2-(2-amino-ethoxy)-ethoxy]-ethoxy}-ethoxy)-propionylamino]-ethoxy}-hydroxy-phosphoryloxy)-2-hydroxy-propyl ester (Ferguson et al., Org Lett 2006, 8 (10), 2023) was labeled with MR121 fluorophore (CAS 185308-24-1, 1-(3-carboxypropyl)-11-ethyl-1,2,3,4,8,9,10,11-octahydro-dipyrido[3,2-b:2′,3′-i]phenoxazin-13-ium) on the free amine of the ethanolamine side and then, after deprotection, subsequently with tryptophan on the side of the aminohexanoic acid.
as §1
Assay buffer (50 mM Tris-HCl, 140 mM NaCl, 5 mM KCl, 1 mM CaCl2, 1 mM MgCl2, 0.01% Triton-X-100, pH 8.0;
ATX solution: ATX (human His-tagged) stock solution (1.08 mg/mL in 20 mM bicine, pH 8.5, 0.15 M NaCl, 10% glycerol, 0.3% CHAPS, 0.02% NaN3), diluted to 1.4-2.5× final concentration in assay buffer;
MR121 substrate solution: MR121 substrate stock solution (800 μM MR121 substrate in DMSO), diluted to 2-5× final concentration in assay buffer.
Test compounds (10 mM stock in DMSO, 8 μL) were obtained in 384 well sample plates (Corning Costar #3655) and diluted with 8 μL DMSO. Row-wise serial dilutions were made by transferring 8 μL cpd solution to the next row up to row O. The compound and control solutions were mixed five times and 2 μL were transferred to 384 well assay plates (Corning Costar #3702). Then, 15 μL of 41.7 nM ATX solution was added (30 nM final concentration), mixed five times and then incubated for 15 minutes at 30° C. 10 μL of MR121 substrate solution was added (1 μM final concentration), mixed 30 times and then incubated for 15 minutes at 30° C.

[2] = hCA II 8 nM, 4-NPA 2.5 mM, absorbance 340 nm, room temperature 1 hour, read-out: CA-II IC50
[3] = human His-tagged ATX 30 nM, MR121 substrate 1 μM, 30° C., read-out: ATX IC50

## NS(=O)(=O)c1ccc(C(=O)N2CC3=C(CN(C(=O)OCc4ccc(OC(F)(F)F)cc4)C3)C2)nc1 [Example 2.02, [4-(trifluoromethoxy)phenyl]methyl 2-(5-sulfamoylpyridine-2-carbonyl)-1,3,4,6-tetrahydropyrrolo[3,4-c]pyrrole-5-carboxylate]
[1]
  IC50: 8 nM
Human ATX
  IC50: 3 nM

## CC(C)(C)C(=O)Nc1ccc(Cl)nc1COC(=O)N1CC2=C(C1)CN(C(=O)c1c(F)cc(S(N)(=O)=O)cc1F)C2 [Example 1.23, [6-chloro-3-(2,2-dimethylpropanoylamino)pyridin-2-yl]methyl 2-(2,6-difluoro-4-sulfamoylbenzoyl)-1,3,4,6-tetrahydropyrrolo[3,4-c]pyrrole-5-carboxylate]
[1]; [2]
  IC50: 1 nM
Human ATX; [3]
  IC50: 10 nM

## NS(=O)(=O)c1ccc(C(=O)N2CC3=C(CN(C(=O)c4cc(OCC5CCOCC5)nc(C5CC5)c4)C3)C2)nc1 [Example 1.07, 6-[5-[2-cyclopropyl-6-(oxan-4-ylmethoxy)pyridine-4-carbonyl]-1,3,4,6-tetrahydropyrrolo[3,4-c]pyrrole-2-carbonyl]pyridine-3-sulfonamide]
[1]; [2]
  IC50: 18 nM
Human ATX; [3]
  IC50: 12 nM

## Cc1nnn(Cc2cc(C#N)ccc2CCC(=O)N2CC3=C(C2)CN(C(=O)c2ccc(S(N)(=O)=O)cc2F)C3)n1 [Example 3.06, 4-[2-[3-[4-cyano-2-[(5-methyltetrazol-2-yl)methyl]phenyl]propanoyl]-1,3,4,6-tetrahydropyrrolo[3,4-c]pyrrole-5-carbonyl]-3-fluorobenzenesulfonamide]
[1]
  IC50: 16 nM
Human ATX
  IC50: 2 nM

## CC(C)(C)C(=O)Nc1cc(Cl)c(Cl)nc1COC(=O)N1CC2=C(C1)CN(C(=O)c1ccc(S(N)(=O)=O)c(F)c1F)C2 [Example 1.30, [5,6-dichloro-3-(2,2-dimethylpropanoylamino)pyridin-2-yl]methyl 2-(2,3-difluoro-4-sulfamoylbenzoyl)-1,3,4,6-tetrahydropyrrolo[3,4-c]pyrrole-5-carboxylate]
[1]
  IC50: 4.2 nM
Human ATX
  IC50: 10 nM

## CC(C)(C)C(=O)Nc1cc(C(F)(F)F)cnc1COC(=O)N1CC2=C(C1)CN(C(=O)c1ccc(S(N)(=O)=O)cc1F)C2 [Example 1.04, [3-(2,2-dimethylpropanoylamino)-5-(trifluoromethyl)pyridin-2-yl]methyl 2-(2-fluoro-4-sulfamoylbenzoyl)-1,3,4,6-tetrahydropyrrolo[3,4-c]pyrrole-5-carboxylate]
[1]; [2]
  IC50: 5 nM
Human ATX; [3]
  IC50: 4 nM

## NS(=O)(=O)c1ccc(C(=O)N2CCC3=C(CCN(C(=O)OCc4ccc(OC(F)(F)F)cc4)C3)C2)c(F)c1 [Example 2.01, [4-(trifluoromethoxy)phenyl]methyl 6-(2-fluoro-4-sulfamoylbenzoyl)-1,3,4,5,7,8-hexahydro-2,6-naphthyridine-2-carboxylate]
[1]
  IC50: 18 nM
Human ATX
  IC50: 14 nM

## CC(C)(C)C(=O)Nc1cc(Cl)c(Cl)nc1COC(=O)N1CC2=C(C1)CN(C(=O)c1c(F)cc(S(N)(=O)=O)cc1F)C2 [Example 1.31, [5,6-dichloro-3-(2,2-dimethylpropanoylamino)pyridin-2-yl]methyl 2-(2,6-difluoro-4-sulfamoylbenzoyl)-1,3,4,6-tetrahydropyrrolo[3,4-c]pyrrole-5-carboxylate]
[1]
  IC50: 11.5 nM
Human ATX
  IC50: 10 nM

## CC(C)(C)C(=O)Nc1ccc(Cl)nc1COC(=O)N1CC2=C(C1)CN(C(=O)c1ccc(S(N)(=O)=O)cc1F)C2 [Example 1.18, [6-chloro-3-(2,2-dimethylpropanoylamino)pyridin-2-yl]methyl 2-(2-fluoro-4-sulfamoylbenzoyl)-1,3,4,6-tetrahydropyrrolo[3,4-c]pyrrole-5-carboxylate]
[1]; [2]
  IC50: 1 nM
Human ATX; [3]
  IC50: 2 nM

## CC(C)(C)C(=O)Nc1cc(C(F)(F)F)cnc1COC(=O)N1CC2=C(C1)CN(C(=O)c1ccc(S(N)(=O)=O)c(F)c1)C2 [Example 1.03, [3-(2,2-dimethylpropanoylamino)-5-(trifluoromethyl)pyridin-2-yl]methyl 2-(3-fluoro-4-sulfamoylbenzoyl)-1,3,4,6-tetrahydropyrrolo[3,4-c]pyrrole-5-carboxylate]
[1]; [2]
  IC50: 9 nM
Human ATX; [3]
  IC50: 5 nM

## Cc1nnn(Cc2cc(Cl)cnc2COC(=O)N2CC3=C(C2)CN(C(=O)c2ccc(S(N)(=O)=O)cc2F)C3)n1 [Example 2.04, [5-chloro-3-[(5-methyltetrazol-2-yl)methyl]pyridin-2-yl]methyl 2-(2-fluoro-4-sulfamoylbenzoyl)-1,3,4,6-tetrahydropyrrolo[3,4-c]pyrrole-5-carboxylate]
[1]
  IC50: 1.9 nM
Human ATX
  IC50: 12 nM

## CC(C)(C)C(=O)Nc1cc(Cl)cnc1COC(=O)N1CC2=C(C1)CN(C(=O)c1c(F)cc(S(N)(=O)=O)cc1F)C2 [Example 1.15, [5-chloro-3-(2,2-dimethylpropanoylamino)pyridin-2-yl]methyl 2-(2,6-difluoro-4-sulfamoylbenzoyl)-1,3,4,6-tetrahydropyrrolo[3,4-c]pyrrole-5-carboxylate]
[1]; [2]
  IC50: 12.9 nM
Human ATX; [3]
  IC50: 8 nM

## CC(C)(C)C(=O)Nc1cc(C(F)(F)F)cnc1COC(=O)N1CC2=C(C1)CN(C(=O)c1ccc(S(N)(=O)=O)cc1)C2 [Example 1.00, [3-(2,2-Dimethylpropanoylamino)-5-(trifluoromethyl)pyridin-2-yl]methyl 2-(4-sulfamoylbenzoyl)-1,3,4,6-tetrahydropyrrolo[3,4-c]pyrrole-5-carboxylate]
[1]; [2]
  IC50: 14 nM
Human ATX; [3]
  IC50: 6 nM

## CC(C)(C)C(=O)Nc1cc(Cl)cnc1COC(=O)N1CC2=C(C1)CN(C(=O)c1ccc(S(N)(=O)=O)cc1F)C2 [Example 1.12, [5-chloro-3-(2,2-dimethylpropanoylamino)pyridin-2-yl]methyl 2-(2-fluoro-4-sulfamoylbenzoyl)-1,3,4,6-tetrahydropyrrolo[3,4-c]pyrrole-5-carboxylate]
[1]; [2]
  IC50: 12.9 nM
Human ATX; [3]
  IC50: 6 nM

## CC(C)(C)C(=O)Nc1cc(C#N)cnc1COC(=O)N1CC2=C(C1)CN(C(=O)c1ccc(S(N)(=O)=O)c(F)c1F)C2 [Example 1.26, [5-cyano-3-(2,2-dimethylpropanoylamino)pyridin-2-yl]methyl 2-(2,3-difluoro-4-sulfamoylbenzoyl)-1,3,4,6-tetrahydropyrrolo[3,4-c]pyrrole-5-carboxylate]
Human ATX
  IC50: 3 nM

## CC(C)(C)C(=O)Nc1cc(C#N)cnc1COC(=O)N1CC2=C(C1)CN(C(=O)c1c(F)cc(S(N)(=O)=O)cc1F)C2 [Example 1.25, [5-cyano-3-(2,2-dimethylpropanoylamino)pyridin-2-yl]methyl 2-(2,6-difluoro-4-sulfamoylbenzoyl)-1,3,4,6-tetrahydropyrrolo[3,4-c]pyrrole-5-carboxylate]
[1]; [2]
  IC50: 8 nM

## CC(C)(C)C(=O)Nc1cc(C#N)cnc1COC(=O)N1CC2=C(C1)CN(C(=O)c1ccc(S(N)(=O)=O)cc1F)C2 [Example 1.24, [5-cyano-3-(2,2-dimethylpropanoylamino)pyridin-2-yl]methyl 2-(2-fluoro-4-sulfamoylbenzoyl)-1,3,4,6-tetrahydropyrrolo[3,4-c]pyrrole-5-carboxylate]
[1]; [2]
  IC50: 7 nM

## CC(C)(C)C(=O)Nc1cc(C(F)(F)F)cnc1COC(=O)N1CCC2=C(CCN(C(=O)c3ccc(S(N)(=O)=O)cc3F)C2)C1 [Example 1.28, [3-(2,2-dimethylpropanoylamino)-5-(trifluoromethyl)pyridin-2-yl]methyl 6-(2-fluoro-4-sulfamoylbenzoyl)-1,3,4,5,7,8-hexahydro-2,6-naphthyridine-2-carboxylate]
Human ATX; [3]
  IC50: 1 nM

— patent US10647719B2, “Bicyclic compounds as dual ATX/CA inhibitors” (Hoffmann-La Roche Inc., priority 2015, dated 2020)
